Experimental data published in paper PMC3650853 (Journal of medicinal chemistry, 2010).

How the values were obtained:
[1] = biological target: mouse CB2 (mCB2) (Mus musculus, UniProt P47936); experiment: Radioligand binding, displacement of [3H]CP-55,940 from mouse spleen membranes; conditions: for lower affinity for CB2 compared to 6b: mCB2 Ki relative to 6b
[2] = biological target: rat CB1 (rCB1) (Rattus norvegicus, UniProt P20272); type: binding
[3] = biological target: rCB1 receptor (Rattus norvegicus, UniProt P20272); type: cell-based
[4] = test system: rats; experiment: Hypothermia test, core body temperature over 6 hours after injection; type: in vivo; conditions: rat, 0.1 mg/kg s.c.
[5] = test system: rats; experiment: Antinociception, tail-flick procedure over 6 hours after injection; conditions: rat
[6] = six-atom versus seven-atom ω-bromo side chain

Sequence of mouse CB2 (mCB2) (P47936 whole entry): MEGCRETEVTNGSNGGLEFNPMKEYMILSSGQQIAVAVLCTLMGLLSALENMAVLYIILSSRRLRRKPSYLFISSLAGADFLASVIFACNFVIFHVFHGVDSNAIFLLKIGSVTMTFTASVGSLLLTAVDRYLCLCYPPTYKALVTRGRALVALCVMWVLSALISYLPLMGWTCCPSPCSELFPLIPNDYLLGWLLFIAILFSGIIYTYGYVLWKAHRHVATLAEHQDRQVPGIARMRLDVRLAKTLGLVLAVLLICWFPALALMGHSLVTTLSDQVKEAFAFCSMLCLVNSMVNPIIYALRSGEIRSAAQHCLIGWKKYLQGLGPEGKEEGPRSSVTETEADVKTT
Sequence of rat CB1 (rCB1) (P20272 whole entry): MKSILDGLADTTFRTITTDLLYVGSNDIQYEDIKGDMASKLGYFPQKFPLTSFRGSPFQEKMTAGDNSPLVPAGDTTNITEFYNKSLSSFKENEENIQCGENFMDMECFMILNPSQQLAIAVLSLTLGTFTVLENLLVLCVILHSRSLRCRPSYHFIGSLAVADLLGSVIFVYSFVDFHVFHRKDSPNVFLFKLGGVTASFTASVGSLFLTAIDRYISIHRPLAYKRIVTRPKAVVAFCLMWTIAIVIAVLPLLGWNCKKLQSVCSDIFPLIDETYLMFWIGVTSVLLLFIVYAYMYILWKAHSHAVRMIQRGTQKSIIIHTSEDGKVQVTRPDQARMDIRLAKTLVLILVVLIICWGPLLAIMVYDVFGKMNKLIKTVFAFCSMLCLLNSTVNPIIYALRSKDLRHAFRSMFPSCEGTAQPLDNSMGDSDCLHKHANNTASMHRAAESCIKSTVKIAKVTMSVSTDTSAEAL
Sequence of rCB1 receptor (P20272 whole entry): as above

CCCC/C=C\C1(c2cc(O)c3c(c2)OC(C)(C)[C@@H]2CCC(=O)C[C@@H]32)CCCC1 [6a, (6aR, 10aR)-3-[1-(1,2-cis-Hexen-1-yl)-cyclopent-1-yl]-6,6a,7,8,10,10a-hexahydro-1-hydroxy-6,6-dimethyl-9H-dibenzo[b,d]pyran-9-one]
lower affinity for CB2 compared to 6b [1]: 5 fold

CCCCCCC1(c2cc(O)c3c(c2)OC(C)(C)[C@@H]2CCC(=O)C[C@@H]32)SCCS1 [6c, (6aR, 10aR)-3-(2-Hexyl-1,3-dithiolan-2-yl)-6,6a,7,8,10,10a-hexahydro-1-hydroxy-6,6-dimethyl-9H-dibenzo[b,d]pyran-9-one]
lower affinity for CB1 compared to 6b ([2]; rCB1 Ki relative to 6b): 4 fold
lower affinity for CB2 compared to 6b [1]: 44 fold

CCCC/C=C\C1(c2cc(O)c3c(c2)OC(C)(C)[C@@H]2CCC(=O)C[C@@H]32)CCC1 [6d, (6aR, 10aR)-3-[1-(1,2-cis-Hexen-1-yl)-cyclobut-1-yl]-6,6a,7,8,10,10a-hexahydro-1-hydroxy-6,6-dimethyl-9H-dibenzo[b,d]pyran-9-one]
selectivity for CB1 over CB2 ([2]; from Ki rCB1 and mCB2, as stated in text): 11 fold

CCCCCCC1(c2cc(O)c3c(c2)OC(C)(C)[C@@H]2CC[C@@H](O)C[C@@H]32)CCC1 [7e-β, (6aR, 9R, 10aR)-3-(1-Hexyl-cyclobut-1-yl)-6a,7,8,9,10,10a-hexahydro-6,6-dimethyl-6H-dibenzo[b,d]pyran-1,9 diol]
EC50 [3]: 1.5 ± 0.3 nM
functional efficacy at CB1 ([3]; cAMP assay): full agonist
onset of drug effect (hypothermia) after injection [4]: 60 to 90 min
time of peak effects (hypothermia) after injection [4]: 300 min
reduction of core body temperature ([4]; from average baseline of 38.48±0.06°C): up to 4.2±0.5 °C
antinociception, % of the maximum possible effect ([5]; 0.1 mg/kg 7e-β after 30-min pretreatment with 1.0 mg/kg rimonabant (SR141716A)): 85.4±5.8%
antinociception, % of the maximum possible effect ([5]; 0.1 mg/kg 7e-β after 30-min pretreatment with 3.0 mg/kg rimonabant (SR141716A)): 48.0±10.9%
antinociception, % of the maximum possible effect ([5]; 0.1 mg/kg 7e-β alone, different group of animals): 100%
doses with significant antinociceptive effects ([5]; s.c., tail-flick): 0.01 to 0.3 mg/kg
onset of the antinociceptive effects after injection ([5]; s.c., tail-flick): 60 to 120 min
time course of antinociceptive effects ([5]; s.c., tail-flick, 6 hour test period): generally increased over the 6 hour test period

CC1(C)Oc2cc(C3(CCCCBr)CCCC3)cc(O)c2[C@@H]2CC(=O)CC[C@H]21 [15a, (6aR,10aR)-3-[1-(4-Bromobutyl)cyclopentyl]-6,6a,7,8,10,10a-hexahydro-1-hydroxy-6,6-dimethyl-9H-dibenzo[b,d]pyran-9-one]
reduction in affinity for CB1 [2, 6]: 13 fold
reduction in affinity for CB2 [1, 6]: 5 fold

CN1CC[C@]23c4c5ccc(O)c4O[C@H]2[C@@H](O)C=C[C@H]3[C@H]1C5 [morphine, reference compound]
time after injection by which antinociceptive effects were decreasing ([5]; s.c., tail-flick): 3 h
time of peak antinociceptive effects after injection ([5]; s.c., tail-flick): 30 to 120 min
antinociceptive effects lower than 7e-β ([5]; tail-flick, relative to 7e-β): approximately 100 fold
